The target of test [1] is T1, TCF4-CTNNB1 complex (Homo sapiens, UniProt P35222+Q9NQB0).
T1 sequence (P35222 whole entry): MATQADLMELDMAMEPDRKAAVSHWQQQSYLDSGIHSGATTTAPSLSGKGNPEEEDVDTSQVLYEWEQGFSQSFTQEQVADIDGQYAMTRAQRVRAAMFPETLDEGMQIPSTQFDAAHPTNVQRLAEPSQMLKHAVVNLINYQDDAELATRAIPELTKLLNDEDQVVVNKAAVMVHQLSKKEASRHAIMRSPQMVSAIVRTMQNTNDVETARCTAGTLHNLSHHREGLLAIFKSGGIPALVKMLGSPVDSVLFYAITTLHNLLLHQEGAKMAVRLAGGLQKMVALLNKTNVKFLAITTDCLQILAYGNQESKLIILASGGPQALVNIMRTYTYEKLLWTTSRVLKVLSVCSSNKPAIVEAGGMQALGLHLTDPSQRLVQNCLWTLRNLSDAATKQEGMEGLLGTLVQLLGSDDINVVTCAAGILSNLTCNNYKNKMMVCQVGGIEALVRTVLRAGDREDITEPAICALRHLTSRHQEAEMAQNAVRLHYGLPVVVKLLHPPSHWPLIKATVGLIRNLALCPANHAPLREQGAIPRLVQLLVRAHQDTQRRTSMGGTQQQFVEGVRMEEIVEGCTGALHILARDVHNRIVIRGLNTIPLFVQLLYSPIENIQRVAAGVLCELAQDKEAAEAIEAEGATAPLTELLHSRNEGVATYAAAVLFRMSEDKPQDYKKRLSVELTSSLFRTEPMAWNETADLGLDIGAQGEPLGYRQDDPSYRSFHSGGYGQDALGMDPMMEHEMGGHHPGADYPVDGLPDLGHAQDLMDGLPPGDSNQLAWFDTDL
T1 sequence (P15884 whole entry): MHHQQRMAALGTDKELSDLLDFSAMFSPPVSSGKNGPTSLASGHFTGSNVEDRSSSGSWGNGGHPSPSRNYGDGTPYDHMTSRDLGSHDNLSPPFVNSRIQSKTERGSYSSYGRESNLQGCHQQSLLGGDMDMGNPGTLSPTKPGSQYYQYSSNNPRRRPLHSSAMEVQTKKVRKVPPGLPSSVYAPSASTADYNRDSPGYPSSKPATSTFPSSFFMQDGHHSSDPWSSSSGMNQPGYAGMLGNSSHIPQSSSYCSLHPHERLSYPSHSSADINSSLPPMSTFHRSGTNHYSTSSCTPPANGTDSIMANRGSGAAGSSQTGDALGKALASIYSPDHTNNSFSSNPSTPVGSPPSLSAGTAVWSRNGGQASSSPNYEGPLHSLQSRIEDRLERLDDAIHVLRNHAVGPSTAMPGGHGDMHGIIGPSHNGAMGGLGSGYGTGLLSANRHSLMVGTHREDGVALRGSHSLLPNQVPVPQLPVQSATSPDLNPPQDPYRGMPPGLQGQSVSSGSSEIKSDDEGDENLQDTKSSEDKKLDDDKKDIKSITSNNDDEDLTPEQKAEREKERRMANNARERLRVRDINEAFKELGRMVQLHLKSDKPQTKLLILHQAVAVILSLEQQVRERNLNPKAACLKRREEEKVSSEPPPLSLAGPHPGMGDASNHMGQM
Description: Inhibition of beta catenin/recombinant GST tagged Tcf4 protein protein interaction in human HCT-116 cells. The format is cell-based.

Test [2] addresses T2, Catenin beta-1 (Homo sapiens, UniProt P35222).
T2 sequence (P35222 whole entry): T1 sequence (P35222 whole entry)
As to the kind of experiment: Inhibition of beta catenin in HEK293 cells by TOPflash luciferase reporter assay. It counts as cell-based. (In a reporter assay the amount or activity of a reporter protein is the signal.)

The nature of test [3]: Inhibition of Tcf in HEK293 cells by TOPflash luciferase reporter assay. It counts as cell-based. The conditions noted are these: Homo sapiens.
Test [4] addresses T3, Catenin beta-1 (Homo sapiens) (UniProt P35222).
T3 sequence (whole entry): T1 sequence (P35222 whole entry)
The conditions noted are these: dose 125.0 µM.
Description: Thermal stabilization of wildtype beta catenin ARD (148 to 662 residues) (unknown origin) assessed as change in melting temperature at 125 uM by DSF method

Test [5] has as its system HCT-116. As to the kind of experiment: Cytotoxicity against human HCT-116 cells assessed as cell viability incubated for 72 hrs by cell titre glo assay. The format is functional, cell-based. The conditions noted are these: HCT-116, 72 h.
Test [6] relates to SW480. As to the kind of experiment: Cytotoxicity against human SW480 cells assessed as cell viability incubated for 72 hrs by cell titre glo assay. The conditions noted are these: SW480, 72 h. The format is functional, cell-based.
In test [7] the test system is SW-620. As to the kind of experiment: Cytotoxicity against human SW-620 cells assessed as cell viability incubated for 72 hrs by cell titre glo assay. Conditions: SW-620, 72 h. The format is functional, cell-based.
For test [8], the system named is HCT-116. Description: Inhibition of cell growth in human HCT-116 cells incubated for 24 hrs by WST-1 assay. It counts as functional. Background: Tetrazolium assays rely on reduction of a dye to a coloured formazan, in cell work by metabolically active cells.
In test [9] the test system is SW480. As to the kind of experiment: Inhibition of cell growth in human SW480 cells incubated for 24 hrs by WST-1 assay. It counts as functional.
Test [10] relates to A549. Description: Antiproliferative activity against human A549 cells expressing wnt2 incubated for 72 hrs by celltitre 96 non-radioactive cell proliferation assay kit. The conditions noted are these: A549, 72 h. The format is functional, cell-based.
The nature of test [11]: Inhibition of Wnt/beta-catenin (unknown origin) transcriptional activity pathway transfected human H1299 cells by measuring luciferase activity after 24 hrs by TOP-flash luciferase reporter gene assay. It counts as cell-based. The conditions noted are these: nci-h1299.
The target in test [12] is Poly(ADP-ribose) glycohydrolase (Homo sapiens, UniProt Q86W56). Description: Binding affinity to human PARG assessed as dissociation constant by SPR analysis.
Poly(ADP-ribose) glycohydrolase, sequence (Q86W56 whole entry): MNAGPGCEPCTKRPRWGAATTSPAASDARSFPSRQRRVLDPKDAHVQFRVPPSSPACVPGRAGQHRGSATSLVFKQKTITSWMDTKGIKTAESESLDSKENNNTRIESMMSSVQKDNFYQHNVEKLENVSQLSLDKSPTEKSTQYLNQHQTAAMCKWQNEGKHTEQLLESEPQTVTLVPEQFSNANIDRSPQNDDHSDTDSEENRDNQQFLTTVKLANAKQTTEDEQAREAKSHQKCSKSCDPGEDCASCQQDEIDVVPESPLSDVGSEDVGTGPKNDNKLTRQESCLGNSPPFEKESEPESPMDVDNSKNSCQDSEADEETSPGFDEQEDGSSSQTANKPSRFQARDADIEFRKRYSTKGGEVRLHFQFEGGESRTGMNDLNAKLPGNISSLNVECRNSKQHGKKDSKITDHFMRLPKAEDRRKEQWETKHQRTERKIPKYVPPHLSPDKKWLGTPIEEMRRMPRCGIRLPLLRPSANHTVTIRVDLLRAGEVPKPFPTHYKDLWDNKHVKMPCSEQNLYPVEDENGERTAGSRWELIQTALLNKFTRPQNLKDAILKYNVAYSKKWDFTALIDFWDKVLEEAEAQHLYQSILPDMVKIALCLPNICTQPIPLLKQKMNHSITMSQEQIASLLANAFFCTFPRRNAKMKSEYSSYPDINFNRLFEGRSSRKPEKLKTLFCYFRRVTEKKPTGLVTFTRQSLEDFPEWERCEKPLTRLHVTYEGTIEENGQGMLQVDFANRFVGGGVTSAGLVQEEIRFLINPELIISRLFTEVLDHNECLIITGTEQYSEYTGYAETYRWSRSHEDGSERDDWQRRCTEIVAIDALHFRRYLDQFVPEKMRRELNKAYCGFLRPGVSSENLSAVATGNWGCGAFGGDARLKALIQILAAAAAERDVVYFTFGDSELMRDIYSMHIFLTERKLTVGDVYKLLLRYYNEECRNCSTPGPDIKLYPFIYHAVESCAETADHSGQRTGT
Test [13] deals with T2, Catenin beta-1.
Description: Binding affinity to beta catenin ARD (142 to 686 residues) (unknown origin) assessed as inhibition constant by fluorescence polarisation assay
Test [14] concerns the target T3, Catenin beta-1 (Homo sapiens).
Description: Binding affinity to beta catenin ARD (142 to 686 residues) (unknown origin) assessed as change in entropy by VP-ITC method
Test [15] deals with T4, beta-catenin-B-cell lymphoma 9 protein complex (Homo sapiens, UniProt P35222).
T4 sequence (P35222 whole entry): T1 sequence (P35222 whole entry)
T4 sequence (O00512 whole entry): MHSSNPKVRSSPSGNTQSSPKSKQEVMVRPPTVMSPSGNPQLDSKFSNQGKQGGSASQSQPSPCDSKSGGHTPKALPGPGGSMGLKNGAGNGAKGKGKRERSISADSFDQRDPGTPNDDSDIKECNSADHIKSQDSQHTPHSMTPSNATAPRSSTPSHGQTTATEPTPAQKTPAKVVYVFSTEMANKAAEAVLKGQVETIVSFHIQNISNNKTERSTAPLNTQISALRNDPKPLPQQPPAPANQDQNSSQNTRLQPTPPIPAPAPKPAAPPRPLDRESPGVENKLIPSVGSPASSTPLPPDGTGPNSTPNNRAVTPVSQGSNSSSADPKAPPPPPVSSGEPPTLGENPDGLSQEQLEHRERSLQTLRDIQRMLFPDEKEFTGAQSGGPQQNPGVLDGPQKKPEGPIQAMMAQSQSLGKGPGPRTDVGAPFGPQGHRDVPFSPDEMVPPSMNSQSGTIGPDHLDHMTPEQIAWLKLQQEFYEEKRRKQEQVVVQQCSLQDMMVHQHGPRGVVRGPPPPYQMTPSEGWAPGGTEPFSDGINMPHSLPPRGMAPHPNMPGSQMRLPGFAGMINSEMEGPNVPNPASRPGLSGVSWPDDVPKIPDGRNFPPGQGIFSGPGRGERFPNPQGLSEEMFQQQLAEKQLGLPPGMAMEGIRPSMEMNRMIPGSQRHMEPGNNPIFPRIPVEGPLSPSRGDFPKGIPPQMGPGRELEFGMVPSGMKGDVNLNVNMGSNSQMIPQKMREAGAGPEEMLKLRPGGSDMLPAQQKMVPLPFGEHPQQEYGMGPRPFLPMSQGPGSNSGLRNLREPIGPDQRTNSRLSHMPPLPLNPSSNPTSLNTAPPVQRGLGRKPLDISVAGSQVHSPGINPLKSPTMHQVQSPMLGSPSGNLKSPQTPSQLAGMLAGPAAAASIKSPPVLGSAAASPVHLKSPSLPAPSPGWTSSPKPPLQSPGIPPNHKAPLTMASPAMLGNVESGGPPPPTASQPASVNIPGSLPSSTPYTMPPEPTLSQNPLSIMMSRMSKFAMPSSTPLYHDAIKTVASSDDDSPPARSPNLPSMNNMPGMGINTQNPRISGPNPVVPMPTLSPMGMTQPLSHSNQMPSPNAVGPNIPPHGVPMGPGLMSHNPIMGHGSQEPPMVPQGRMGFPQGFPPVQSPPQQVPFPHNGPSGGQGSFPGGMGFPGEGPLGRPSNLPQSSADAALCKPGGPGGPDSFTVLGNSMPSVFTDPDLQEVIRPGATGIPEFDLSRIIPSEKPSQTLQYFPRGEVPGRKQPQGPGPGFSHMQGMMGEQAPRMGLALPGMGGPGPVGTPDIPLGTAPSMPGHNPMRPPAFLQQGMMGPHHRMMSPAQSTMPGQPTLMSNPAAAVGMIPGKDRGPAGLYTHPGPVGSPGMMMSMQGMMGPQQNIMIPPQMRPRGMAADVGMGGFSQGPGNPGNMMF
Description: Binding affinity to N-terminal FLAG tagged beta catenin (134 to 671 residues)/FLAG tagged BCL9 domain 2 (343 to 396 residues) (unknown origin) protein protein interaction assessed as inhibition constant. The format is protein-complex assay.

Test [16] deals with T2, Catenin beta-1. Description: Binding affinity to N-terminal FLAG tagged beta catenin alpha helix (H1 - 141 to 149 aa) of armadillo repeat domain (unknown origin) by STD/HSQC based NMR analysis.
Test [17] in a line: Downregulation of c-Myc protein expression level in human PANC-1 cells. It counts as functional, cell-based.
Test [18] in a line: Downregulation of c-Myc protein expression level in human ASPC1 cells. It counts as functional, cell-based.

Experimental findings from ChEMBL document CHEMBL5104113, “Biophysical Survey of Small-Molecule β-Catenin Inhibitors: A Cautionary Tale” (J Med Chem, 2022) are described below.

Take `COc1c(C[C@H](C)OC(=O)c2c(C)cc(O)cc2O)c2c3c(C[C@H](C)OC(=O)c4c(C)cc(O)cc4O)c(OC)c(=O)c4c(O)cc(OC)c(c5c(OC)cc(O)c(c1=O)c52)c43`: the IC50 in [1] was 10 µM.

As for `CCc1cccc2c3c([nH]c12)[C@@](CC)(CC(=O)O)OCC3` [SDX-101], the IC50 was determined as 683 µM in test [2] and 46 µM in test [3]. Also, the ΔTm in [4] is -0.5 °C.

Consider `CN(C)c1ccc(-c2nc3cc(F)ccc3[nH]2)cc1`, for which the ΔTm in test [4] is -0.1 °C.

`Cc1ccc(/C=N/NC(=O)c2ccccc2Oc2ccccc2)o1`: in test [4], the ΔTm was -0.5 °C.

`Cc1cc(Cl)ccc1/N=C\c1ccc(F)c(Oc2ccccc2)c1`: the ΔTm in [4] was found to be 0.1 °C.

`c1ccc(CCNc2nc(N3CCCCC3)nc3ccccc23)cc1`: the values for the IC50 in test [5], in [6] and in test [7] were 6.2 µM, 5.9 µM and 6.7 µM, respectively. In addition, the ΔTm in test [4] was -0.6 °C.

For the compound `O=C(Nc1ccc(O[C@H]2CCNC2)c(-c2ccc(F)cc2)c1)c1ccc(O[C@@H]2CCNC2)c(-c2ccc(F)c(F)c2)c1`, the thermal shift (ΔTm) in test [4] is -0.5 °C.

For the compound `O=C(CN1C2=NCCN2c2ccccc21)c1ccc(-c2ccccc2)cc1`, the GI50 in test [8] came to 13.9 µM; in [9], 13.2 µM. The ΔTm in [4] is -0.1 °C.

Regarding `COc1cccc(/C=C2/SC(=S)N(CCC(=O)O)C2=O)c1OC`, the ΔTm in test [4] was -0.5 °C.

Regarding `Cc1ccc(S(=O)(=O)Nc2cccc(C(=O)O)c2)cc1`, the ΔTm in [4] is -0.5 °C.

Take `Fc1ccc2nc(OCCN3CCCC3)c(C#Cc3ccccc3)nc2c1`: the IC50 in [10] is 10 µM. In [4], the ΔTm was 0.1 °C.

For `CN(C)CCOc1nc2ccccc2nc1C#Cc1ccccc1`, in test [4], the ΔTm was found to be 0 °C.

For `COC(=O)c1cccc(NS(=O)(=O)c2ccc(C)cc2)c1`, the ΔTm in test [4] is -0.5 °C.

Take `O=C1C(Cl)=C(Nc2ccc(S(=O)(=O)Nc3ccccn3)cc2)C(=O)c2ccccc21`: it took 2.3 µM to reach half-maximal inhibition in [11] (IC50).

On to `O=C(O)c1ccccc1Oc1ccccc1`, for which the thermal shift (ΔTm) in [4] is -0.1 °C.

In the case of `CC(C)(C)NS(=O)(=O)c1ccc2c(c1)C(=O)c1ccccc1C2=O`, the Kd in test [12] was 0.00145 µM.

`On1ncc2cc(CCc3nn[nH]n3)ccc21`: the Ki in test [13] worked out at 3 µM. Also, in [14], the -TdeltaS is -7.89 kcal/mol.

Take `COc1c(C[C@H](C)OC(=O)Oc2ccc(O)cc2)c2c3c(C[C@H](C)OC(=O)c4ccccc4)c(OC)c(=O)c4c(O)cc(OC)c(c5c(OC)cc(O)c(c1=O)c52)c43`: the 50% inhibitory concentration (IC50) in test [1] is 10 µM.

With `Cc1ccc2nc(N(C)C)nc(NCc3ccc(C(=O)NCc4ccc(F)cc4)cc3)c2c1`, the ΔTm in [4] was -0.7 °C.

On to `CCc1ccc(-c2nc(CSCC(=O)NCCc3ccccc3)c(C)o2)cc1`, for which, in [4], the ΔTm is -0.7 °C.

For the compound `Cn1ncnc2c(=O)n(C)c(=O)nc1-2`, the ΔTm in test [4] is -0.5 °C.

For the compound `CC(C)c1cc2c(c(O)c1O)[C@@]1(C(=O)O)CCCC(C)(C)[C@@H]1CC2` [CARNOSIC ACID], the Ki in [15] stood at 3 µM. Moreover, the Kd in test [16] is 20 µM. The thermal shift (ΔTm) in test [4] is -2.7 °C.

Turning to `O=C(O)c1ccccc1-c1c2ccc(=O)cc-2oc2cc(O)ccc12`, the ΔTm in test [4] came out at 0.1 °C.

As for `COc1ccc2[nH]c3c(-c4cccc5ccccc45)nccc3c2c1`, the IC50 in test [17] and in [18] was below 0.5 µM throughout. The ΔTm in test [4] was -0.9 °C.

The IC50 is the point on the concentration scale where inhibition reaches its midpoint. By ΔTm is commonly meant the change in melting temperature against a reference sample. Usually GI50 stands for the concentration at which growth is held to half of that of the control. High values mean less potent growth inhibition, low ones more potent growth inhibition. The Kd is the constant that tells how readily two partners part at equilibrium. For orientation: Ki means a dissociation constant, usually derived from enzyme kinetics or from competition with a known ligand.
